Measured values published in ChEMBL document CHEMBL5113458, “Structure-activity relationships of 2-pyrimidinecarbohydrazides as utrophin modulators for the potential treatment of Duchenne muscular dystrophy” (Bioorg Med Chem, 2022).
In brackets after ≈: the same amount, converted by molar mass.

Tests used:
[1] = Semi-thermodynamic solubility of compound at pH 7.4; type: physicochemical; details: buffer, read-out: Therm_solubility
Utrophin (Mus musculus) = Utrophin (Mus musculus) (UniProt E9Q6R7); assay: Modulation of mouse Utrophin in mouse H2K mdx cells assessed as fold increase in utrophin protein level at 0.1 to 10 uM incubated for 24 hrs by Western blot analysis; type: cell-based; details: filed as modulator, dose 0.1-10 µM
Chain of Utrophin (Mus musculus) (E9Q6R7 as listed by the source): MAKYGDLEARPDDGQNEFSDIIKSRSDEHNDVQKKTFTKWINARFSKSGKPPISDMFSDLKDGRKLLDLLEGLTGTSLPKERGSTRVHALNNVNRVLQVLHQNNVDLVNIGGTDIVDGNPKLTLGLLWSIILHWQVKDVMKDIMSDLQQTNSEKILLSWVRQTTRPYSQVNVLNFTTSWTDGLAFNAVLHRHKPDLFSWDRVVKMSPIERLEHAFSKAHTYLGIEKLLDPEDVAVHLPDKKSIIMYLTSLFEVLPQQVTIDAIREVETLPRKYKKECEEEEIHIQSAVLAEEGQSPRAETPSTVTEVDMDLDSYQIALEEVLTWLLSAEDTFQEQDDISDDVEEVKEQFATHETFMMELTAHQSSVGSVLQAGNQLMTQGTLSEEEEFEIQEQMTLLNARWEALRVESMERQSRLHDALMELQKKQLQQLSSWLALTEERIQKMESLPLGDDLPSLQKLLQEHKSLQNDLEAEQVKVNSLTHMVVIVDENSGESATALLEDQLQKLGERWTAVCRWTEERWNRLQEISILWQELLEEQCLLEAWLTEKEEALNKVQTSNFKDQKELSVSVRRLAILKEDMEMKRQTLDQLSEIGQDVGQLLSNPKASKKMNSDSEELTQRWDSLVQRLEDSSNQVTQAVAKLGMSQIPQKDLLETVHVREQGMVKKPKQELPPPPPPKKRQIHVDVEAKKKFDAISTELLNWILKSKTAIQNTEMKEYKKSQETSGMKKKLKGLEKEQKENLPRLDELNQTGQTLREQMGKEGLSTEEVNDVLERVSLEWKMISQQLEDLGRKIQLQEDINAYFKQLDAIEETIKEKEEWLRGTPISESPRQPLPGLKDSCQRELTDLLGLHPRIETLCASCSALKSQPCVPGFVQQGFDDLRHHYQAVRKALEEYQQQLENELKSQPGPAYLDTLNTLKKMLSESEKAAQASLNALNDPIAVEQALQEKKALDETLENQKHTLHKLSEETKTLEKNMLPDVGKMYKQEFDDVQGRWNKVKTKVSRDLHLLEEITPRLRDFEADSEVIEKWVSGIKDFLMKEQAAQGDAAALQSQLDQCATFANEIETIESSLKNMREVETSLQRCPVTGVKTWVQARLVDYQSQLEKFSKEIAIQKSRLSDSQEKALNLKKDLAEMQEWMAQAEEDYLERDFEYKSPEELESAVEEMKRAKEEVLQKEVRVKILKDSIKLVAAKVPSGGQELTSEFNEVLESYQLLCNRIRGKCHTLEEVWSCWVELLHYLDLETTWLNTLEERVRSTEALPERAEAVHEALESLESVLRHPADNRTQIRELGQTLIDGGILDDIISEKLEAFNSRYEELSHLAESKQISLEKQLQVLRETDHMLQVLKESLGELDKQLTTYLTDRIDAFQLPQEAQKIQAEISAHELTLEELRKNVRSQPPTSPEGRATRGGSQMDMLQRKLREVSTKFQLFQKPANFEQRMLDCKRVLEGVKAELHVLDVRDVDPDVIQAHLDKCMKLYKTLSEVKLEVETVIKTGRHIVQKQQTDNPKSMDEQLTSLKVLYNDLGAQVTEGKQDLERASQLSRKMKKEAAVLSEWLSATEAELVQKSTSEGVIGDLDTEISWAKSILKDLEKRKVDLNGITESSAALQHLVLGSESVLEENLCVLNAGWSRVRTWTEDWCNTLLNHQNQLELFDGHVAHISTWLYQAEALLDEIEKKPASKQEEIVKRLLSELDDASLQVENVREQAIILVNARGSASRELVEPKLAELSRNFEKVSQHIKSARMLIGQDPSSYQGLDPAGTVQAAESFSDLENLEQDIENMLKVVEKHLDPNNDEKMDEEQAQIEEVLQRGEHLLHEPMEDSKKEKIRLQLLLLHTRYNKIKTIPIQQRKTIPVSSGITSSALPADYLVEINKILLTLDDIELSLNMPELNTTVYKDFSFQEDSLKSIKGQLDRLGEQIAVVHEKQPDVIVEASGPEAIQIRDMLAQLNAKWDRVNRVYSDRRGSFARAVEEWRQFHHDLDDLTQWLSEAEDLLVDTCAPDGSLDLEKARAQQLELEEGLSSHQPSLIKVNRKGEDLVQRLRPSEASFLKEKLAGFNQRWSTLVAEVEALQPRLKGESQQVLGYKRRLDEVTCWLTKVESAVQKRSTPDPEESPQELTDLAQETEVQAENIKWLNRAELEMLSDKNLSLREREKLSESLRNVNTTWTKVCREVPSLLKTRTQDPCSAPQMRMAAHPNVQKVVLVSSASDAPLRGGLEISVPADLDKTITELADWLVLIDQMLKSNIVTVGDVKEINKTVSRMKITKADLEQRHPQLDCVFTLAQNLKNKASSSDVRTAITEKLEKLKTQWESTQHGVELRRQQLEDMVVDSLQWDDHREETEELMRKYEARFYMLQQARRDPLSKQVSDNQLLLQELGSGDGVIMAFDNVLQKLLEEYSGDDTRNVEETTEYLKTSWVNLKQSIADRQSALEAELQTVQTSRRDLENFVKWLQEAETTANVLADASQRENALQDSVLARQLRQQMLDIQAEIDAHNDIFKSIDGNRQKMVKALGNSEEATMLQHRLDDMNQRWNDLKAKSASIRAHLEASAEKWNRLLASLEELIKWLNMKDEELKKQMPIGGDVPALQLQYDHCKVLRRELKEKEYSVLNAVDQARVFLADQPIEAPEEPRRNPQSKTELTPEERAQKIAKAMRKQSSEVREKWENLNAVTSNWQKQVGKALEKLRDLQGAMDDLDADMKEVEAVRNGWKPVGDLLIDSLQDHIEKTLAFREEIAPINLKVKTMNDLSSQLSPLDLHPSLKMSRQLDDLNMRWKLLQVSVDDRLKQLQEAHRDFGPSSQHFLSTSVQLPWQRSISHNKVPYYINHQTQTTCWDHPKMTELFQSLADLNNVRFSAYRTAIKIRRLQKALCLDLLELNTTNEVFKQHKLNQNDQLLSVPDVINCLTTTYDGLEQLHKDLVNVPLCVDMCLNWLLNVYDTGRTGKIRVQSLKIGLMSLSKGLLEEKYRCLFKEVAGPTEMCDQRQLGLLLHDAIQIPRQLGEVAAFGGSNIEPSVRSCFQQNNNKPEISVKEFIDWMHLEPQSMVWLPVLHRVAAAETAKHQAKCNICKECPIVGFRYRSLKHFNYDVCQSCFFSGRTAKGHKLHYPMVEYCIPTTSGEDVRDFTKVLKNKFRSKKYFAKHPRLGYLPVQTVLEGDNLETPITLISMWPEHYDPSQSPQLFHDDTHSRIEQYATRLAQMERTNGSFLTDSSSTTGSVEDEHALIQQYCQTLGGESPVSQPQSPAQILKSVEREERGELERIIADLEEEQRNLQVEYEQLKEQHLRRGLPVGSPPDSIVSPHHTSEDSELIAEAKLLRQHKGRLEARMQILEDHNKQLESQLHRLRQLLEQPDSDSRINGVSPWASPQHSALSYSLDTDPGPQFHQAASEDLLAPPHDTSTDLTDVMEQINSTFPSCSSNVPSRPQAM

[2] = Metabolic stability in mouse hepatocytes assessed as intrinsic clearance per 10^6 cells; type: ADME, cell-based, Hepatocyte; details: read-out: CLH
[3] = Metabolic stability in mouse liver microsomes assessed as intrinsic clearance per mg protein; type: ADME, Microsome; details: read-out: CLH
[4] = Metabolic stability in mouse hepatocytes assessed as half life; type: ADME, cell-based, Hepatocyte
[5] = Metabolic stability in mouse liver microsomes assessed as half life; type: ADME, Microsome

solubility thermodynamic [1]: 200 µM (≈ 71.9 µg/mL) | FC (Utrophin (Mus musculus)): 2.5 | hepatocyte CLint [2]: 13 µL/min/1e6 cells | microsomal CLint [3]: 1.53 µL/min/mg | half-life [4]: 1.77 h | half-life [5]: 7.57 h
Structure (SMILES): NNC(=O)c1nc(-c2ccccc2)cc(-c2ccc(C(F)(F)F)nc2)n1
